16 compounds from ChEMBL document CHEMBL1134304, “Discovery of novel p-arylthio cinnamides as antagonists of leukocyte function-associated antigen-1/intercellular adhesion molecule-1 interaction. 4. Structure-activity relationship of substituents on the benzene ring of the cinnamide” (J Med Chem, 2001) can be followed below.

For assay [1], the target named is T1, Integrin alpha-L (Homo sapiens, UniProt P20701).
T1 sequence (P20701 whole entry): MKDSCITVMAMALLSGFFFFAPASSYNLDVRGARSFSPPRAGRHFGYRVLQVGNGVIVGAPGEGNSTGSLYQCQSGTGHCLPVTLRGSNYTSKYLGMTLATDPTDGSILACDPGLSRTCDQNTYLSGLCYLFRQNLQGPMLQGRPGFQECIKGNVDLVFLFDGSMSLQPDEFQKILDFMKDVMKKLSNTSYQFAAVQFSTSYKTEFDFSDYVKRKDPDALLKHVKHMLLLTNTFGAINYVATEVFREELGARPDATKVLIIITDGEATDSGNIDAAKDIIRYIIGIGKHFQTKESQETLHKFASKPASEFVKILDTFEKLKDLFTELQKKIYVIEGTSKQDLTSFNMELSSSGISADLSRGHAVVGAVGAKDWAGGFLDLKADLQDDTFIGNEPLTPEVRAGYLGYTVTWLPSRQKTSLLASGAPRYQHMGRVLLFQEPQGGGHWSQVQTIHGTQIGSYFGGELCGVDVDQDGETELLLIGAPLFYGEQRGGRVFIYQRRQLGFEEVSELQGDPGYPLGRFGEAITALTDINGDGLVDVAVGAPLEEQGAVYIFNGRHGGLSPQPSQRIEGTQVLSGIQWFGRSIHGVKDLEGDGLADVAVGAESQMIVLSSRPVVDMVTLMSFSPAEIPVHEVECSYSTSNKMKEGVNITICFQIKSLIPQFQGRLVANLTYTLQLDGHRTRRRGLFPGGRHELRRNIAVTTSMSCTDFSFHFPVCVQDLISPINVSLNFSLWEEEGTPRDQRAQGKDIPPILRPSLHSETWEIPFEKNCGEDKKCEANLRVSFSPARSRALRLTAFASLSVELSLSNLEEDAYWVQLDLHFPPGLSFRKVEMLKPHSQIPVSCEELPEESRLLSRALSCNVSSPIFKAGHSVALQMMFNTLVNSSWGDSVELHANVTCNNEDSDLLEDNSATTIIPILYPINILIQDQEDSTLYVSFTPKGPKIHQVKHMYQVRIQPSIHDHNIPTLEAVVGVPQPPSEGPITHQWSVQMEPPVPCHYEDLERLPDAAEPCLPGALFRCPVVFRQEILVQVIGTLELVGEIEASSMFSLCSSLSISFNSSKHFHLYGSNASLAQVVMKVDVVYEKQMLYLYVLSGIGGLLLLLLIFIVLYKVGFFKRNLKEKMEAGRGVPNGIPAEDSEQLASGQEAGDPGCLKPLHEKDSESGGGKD
Briefly: Inhibition of intercellular adhesion molecule-1 (ICAM-1) binding to recombinant LFA-1.

Assay [2] concerns the target T1, Integrin alpha-L. The assay can be described thus: Inhibition of intercellular adhesion molecule-1 (ICAM-1) binding to recombinant LFA-1, range(760-2620).
Assay [3] deals with T1, Integrin alpha-L. The assay can be described thus: Inhibition of intercellular adhesion molecule-1 (ICAM-1) binding to recombinant LFA-1, range (260-270).
Assay [4] concerns the target T2, Intercellular adhesion molecule (ICAM-1), Integrin alpha-L/beta-2 (Homo sapiens, UniProt P05107+P20701). Briefly: Inhibition of LFA-1 mediated JY-8 cell adhesion to ICAM-1, range (30-150). It counts as functional, cell-based.
The target in assay [5] is T1, Integrin alpha-L. The assay can be described thus: Inhibition of intercellular adhesion molecule-1 (ICAM-1) binding to recombinant LFA-1, range(30-60).
The target in assay [6] is T1, Integrin alpha-L.
The target of assay [7] is T2, Intercellular adhesion molecule (ICAM-1), Integrin alpha-L/beta-2.
The target of assay [8] is T1, Integrin alpha-L. The source holds these as a separate data set.
For assay [9], the target named is T1, Integrin alpha-L. The assay can be described thus: Inhibition of intercellular adhesion molecule-1 (ICAM-1) binding to recombinant LFA-1, range (3600-5100).
Assay [10] addresses T1, Integrin alpha-L. The assay can be described thus: Inhibition of intercellular adhesion molecule-1 (ICAM-1) binding to recombinant LFA-1, range(120-140).
Assay [11] concerns the target T1, Integrin alpha-L. This is another data set of the same source.
Assay [12] addresses T1, Integrin alpha-L. The assay can be described thus: Inhibition of intercellular adhesion molecule-1 (ICAM-1) binding to recombinant LFA-1, range(6-13).
The target of assay [13] is T2, Intercellular adhesion molecule (ICAM-1), Integrin alpha-L/beta-2. The assay can be described thus: Inhibition of LFA-1 mediated JY-8 cell adhesion to ICAM-1. Format: functional, cell-based.
Assay [14] addresses T1, Integrin alpha-L. Briefly: Inhibition of intercellular adhesion molecule-1 (ICAM-1) binding to recombinant LFA-1, range(40-60).
In assay [15] the target is T1, Integrin alpha-L. The assay can be described thus: Inhibition of intercellular adhesion molecule-1 (ICAM-1) binding to recombinant LFA-1, range (2500-11500).
Assay [16] has as its target T2, Intercellular adhesion molecule (ICAM-1), Integrin alpha-L/beta-2. This is another data set of the same source.
Assay [17] relates to Mus musculus. The assay can be described thus: Inhibition of allergen induced total cell influx in mouse lung at 1 mg/kg. Format: functional.
Assay [18] deals with Mus musculus. The assay can be described thus: Inhibition of allergen induced total cell influx in mouse lung at 10 mg/kg. It counts as functional.
Assay [19] relates to Mus musculus. Briefly: Inhibition of allergen induced total cell influx in mouse lung at 3 mg/kg. Format: functional.
In assay [20] the target is T3, Intercellular adhesion molecule (ICAM-1), Integrin alpha-L/beta-2 (Homo sapiens) (UniProt P20701+P05362+P05107). The note with it: Rattus norvegicus.
Assay [21] concerns the target T3, Intercellular adhesion molecule (ICAM-1), Integrin alpha-L/beta-2 (Homo sapiens). The note with it: Rattus norvegicus. This is another data set of the same source.
Assay [22] deals with T1, Integrin alpha-L. The source holds these as a separate data set.
Assay [23] has as its system Mus musculus. The assay can be described thus: Inhibition of allergen induced neutrophil influx in mouse lung at 1 mg/kg. It counts as functional.
The test system of assay [24] is Mus musculus. Briefly: Inhibition of allergen induced neutrophil influx in mouse lung at 10 mg/kg. Format: functional.
The test system of assay [25] is Mus musculus. Briefly: Inhibition of allergen induced neutrophil influx in mouse lung at 3 mg/kg. It counts as functional.
For assay [26], the target named is T1, Integrin alpha-L. Briefly: Inhibition of intercellular adhesion molecule-1 (ICAM-1) binding to recombinant LFA-1, range(100-200).
The target in assay [27] is T2, Intercellular adhesion molecule (ICAM-1), Integrin alpha-L/beta-2. Briefly: Inhibition of LFA-1 mediated JY-8 cell adhesion to ICAM-1, range (100-600). It counts as functional, cell-based.
The target is the same in assay [28]. Briefly: Inhibition of LFA-1 mediated JY-8 cell adhesion to ICAM-1, range (3-18). It counts as functional, cell-based.
For assay [29], the target named is T1, Integrin alpha-L. Briefly: Inhibition of intercellular adhesion molecule-1 (ICAM-1) binding to recombinant LFA-1, range (6-19).

T2 sequence (P05362 whole entry, one chain of several, further chain): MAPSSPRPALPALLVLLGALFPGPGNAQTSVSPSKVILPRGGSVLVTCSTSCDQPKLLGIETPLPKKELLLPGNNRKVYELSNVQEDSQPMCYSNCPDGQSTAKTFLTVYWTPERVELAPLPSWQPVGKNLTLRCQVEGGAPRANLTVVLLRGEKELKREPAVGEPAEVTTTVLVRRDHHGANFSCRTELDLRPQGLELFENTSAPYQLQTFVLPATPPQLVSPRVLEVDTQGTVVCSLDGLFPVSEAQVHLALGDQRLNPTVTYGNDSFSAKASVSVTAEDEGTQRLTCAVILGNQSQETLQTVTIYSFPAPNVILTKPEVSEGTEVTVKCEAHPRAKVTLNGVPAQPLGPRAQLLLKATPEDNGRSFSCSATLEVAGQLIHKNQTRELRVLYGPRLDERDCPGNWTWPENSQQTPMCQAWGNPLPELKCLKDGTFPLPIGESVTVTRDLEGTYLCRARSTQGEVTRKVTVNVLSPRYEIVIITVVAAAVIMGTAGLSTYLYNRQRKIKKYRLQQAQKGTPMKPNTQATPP
T2 sequence (P05107 whole entry, one chain of several): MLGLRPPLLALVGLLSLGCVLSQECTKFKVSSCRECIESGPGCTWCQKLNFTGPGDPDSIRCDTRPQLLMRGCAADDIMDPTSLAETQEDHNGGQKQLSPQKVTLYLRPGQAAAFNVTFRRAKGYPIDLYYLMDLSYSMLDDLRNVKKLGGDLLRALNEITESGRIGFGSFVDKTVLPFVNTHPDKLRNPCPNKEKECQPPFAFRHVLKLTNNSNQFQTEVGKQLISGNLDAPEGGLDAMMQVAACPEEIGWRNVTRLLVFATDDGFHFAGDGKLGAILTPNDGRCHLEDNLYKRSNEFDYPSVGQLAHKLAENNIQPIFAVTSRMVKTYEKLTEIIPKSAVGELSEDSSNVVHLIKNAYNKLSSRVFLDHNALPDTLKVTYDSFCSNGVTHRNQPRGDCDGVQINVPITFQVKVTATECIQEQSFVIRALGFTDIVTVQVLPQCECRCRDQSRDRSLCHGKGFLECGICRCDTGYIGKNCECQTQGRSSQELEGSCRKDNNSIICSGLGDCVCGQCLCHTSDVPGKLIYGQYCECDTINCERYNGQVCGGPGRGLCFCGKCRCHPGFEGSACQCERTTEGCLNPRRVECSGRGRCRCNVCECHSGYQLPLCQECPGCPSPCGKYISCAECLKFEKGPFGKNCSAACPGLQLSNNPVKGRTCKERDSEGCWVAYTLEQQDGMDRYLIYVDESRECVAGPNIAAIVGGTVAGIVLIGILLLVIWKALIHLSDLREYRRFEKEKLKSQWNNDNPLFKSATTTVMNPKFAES

The IC50 is the point on the concentration scale where inhibition reaches its midpoint. As for `O=C(/C=C/c1ccc(Sc2cccc(Cl)c2Cl)cc1)N1CCOCC1`, the IC50 in [1] is 9.1 µM.

With `COc1ccccc1Sc1ccc(/C=C/C(=O)N2CCC(C(=O)O)CC2)c(Cl)c1`, in assay [2], the half-inhibitory concentration (IC50) came out at 1.4 µM.

As for `COc1ccccc1Sc1ccc(/C=C/C(=O)N2CCC(C(=O)O)CC2)c(C(F)(F)F)c1`, the IC50 in assay [3] was 0.265 µM.

In the case of `CC(=O)N1CCN(C(=O)/C=C/c2ccc(Sc3ccc4c(c3)OCCO4)c(Cl)c2)CC1`, the values for the concentration for half-maximal inhibition (IC50) in [4] and in [5] were 0.08 µM and 0.04 µM, respectively.

In turn, `CC(C)c1ccccc1SC1=CC=C(/C=C/C(=O)N2CCC(C(=O)O)CC2)C(F)C1F` (stereo not given) yielded an IC50 in assay [6] of 0.115 µM.

On to `COc1ccccc1Sc1ccc(/C=C/C(=O)N2CCC(C(=O)O)CC2)c(C(F)(F)F)c1C(F)(F)F`, for which the 50% inhibitory concentration (IC50) in assay [7] was found to be 0.0001 µM; in assay [8], 0.005 µM.

As to `CC(=O)N1CCN(C(=O)/C=C/c2ccc(Sc3ccc(Cl)cc3Cl)cc2)CC1`, in [9], the IC50 came to 4.3 µM.

With `CC(=O)N1CCN(C(=O)/C=C/c2ccc(Sc3ccc4c(c3)OCCO4)c([N+](=O)[O-])c2)CC1`, in assay [10], the IC50 is 0.139 µM.

With `O=C(/C=C/c1ccc(Sc2ccc3c(c2)OCCO3)c(C(F)(F)F)c1)N1CCOCC1`, the 50% inhibitory concentration (IC50) in [11] turned out to be 0.03 µM.

In the case of `COc1ccccc1Sc1cc(C)c(/C=C/C(=O)N2CCC(C(=O)O)CC2)cc1[N+](=O)[O-]`, in [1], the 50% inhibitory concentration (IC50) is more than 20 µM.

Consider `COc1ccccc1Sc1ccc(/C=C/C(=O)N2CCOCC2)c(Cl)c1Cl`, for which the values for the IC50 in assay [12] and in assay [13] were 0.01 µM and 0.006 µM, respectively.

Turning to `O=C(O)C1CCN(C(=O)/C=C/c2ccc(Sc3ccc4c(c3)OCCO4)c(C(F)(F)F)c2)CC1`, the IC50 in assay [14] was 0.05 µM.

On to `COc1ccccc1Sc1ccc(/C=C/C(=O)N2CCN(C(C)=O)CC2)c(F)c1`, for which the IC50 in assay [15] was determined as 3.9 µM.

As for `Cn1ccc2cc(Sc3ccc(/C=C/C(=O)N4CCC(C(=O)O)CC4)c(Cl)c3Cl)ccc21`, the IC50 in [16] amounted to 0.004 µM; in assay [22], 0.006 µM. Besides, the Total cells in assay [17] was found to be 291 number ul-1; in [18] it was 189 number ul-1; in assay [19], 147 number ul-1. The results for the Polymorphonuclear cells in assay [20] and in assay [21] were 7.48 and 4.88, respectively. Moreover, the Neutrophils in [23] was 36%; in [24], 30%; in assay [25] it was 31%.

`CC(=O)N1CCN(C(=O)/C=C/c2ccc(Sc3ccc(Cl)cc3Cl)c(Cl)c2)CC1`: the half-maximal inhibitory concentration (IC50) is 0.14 µM in [26] and 0.13 µM in [27].

Regarding `CC(C)c1ccccc1Sc1ccc(/C=C/C(=O)N2CCC(C(=O)O)CC2)c(Cl)c1Cl`, the IC50 in assay [28] was 0.006 µM; in [29], 0.01 µM.
